Here are results for 61 compounds from a melting point compilation (Tetko et al.; mined from patent text by program, amines drawn as free bases though some values may be those of a salt).

For orientation: melting point means the temperature, or range, at which the solid turns liquid. The compound `Nc1ccc(S(=O)(=O)c2cc(N)cc(Br)n2)cc1` had a melting point of 202 to 204 °C. Compound `Cc1ccnc(C=NNC(N)=S)c1N` gave a melting point of 227 to 228 °C. In the case of `CCCC(=O)Nc1cc(Oc2ccc(Cl)cc2)ccc1NC(=NC(=O)OC)NC(=O)OC` it was 201 °C; in that of `CC[C@H](C)C(OCc1ccccc1)[C@H]1[C@H]([N+](=O)[O-])[C@H](c2ccsc2)N[C@@H]1C(=O)NCCC(=O)O` (stereo partly specified), 145 to 146 °C.

On to `COc1ccc2c(c1)CCC1C2CCC2(C)C(O)C(C)CC12` (stereo unspecified), for which the melting point lay within 100 to 102 °C. The compound `CS(=O)(=O)c1ccc(Cl)c(-c2n[nH]c3nc(Oc4ccc(F)cc4F)ncc23)c1` had a melting point of 252 °C. In the case of `C#CC1=Cc2ccccc2Sc2ccc(S(C)(=O)=O)cc21` it was 140 to 143 °C.

The compound `COc1ccc(-n2nc3c(cc2=O)CCSc2sccc2-3)cc1` yielded a melting point of 126 to 128 °C.

The compound `Nc1nc(-c2cc(Cl)ccc2Cl)nc(N2CCN(c3ccccc3)CC2)n1` registered a melting point of 203 to 206 °C. `CN1C(=O)CN=C(c2ccccc2)c2cc(NO)ccc21` came in with a melting point of 211 to 213 °C.

For `CCOC(=O)NCC(=O)c1ccc(OCC(=O)OC)cc1`, the melting point was 128 to 129 °C. `CC(=O)NCC1CN(c2ccc3c(c2)C(=O)CCCC3)C(=O)O1` (stereo unspecified) gave a melting point of 120 to 121 °C. For the compound `CC(C)(Nc1cccc(C(=N)N)c1)C(=O)Nc1ccc(-c2ccccc2S(N)(=O)=O)cc1`, the melting point is 197 °C. `Cc1ccc(-c2c(NS(=O)(=O)c3ccc(C(C)(C)C)cc3)nc(S(C)(=O)=O)nc2OCCOCc2ccccc2)cc1` had a melting point of 129 to 130 °C. As for `CC(=O)Nc1cc2c(cc1[N+](=O)[O-])N(NC(C)=O)CC2`, the figure is 212 to 213 °C; as for `CCCCOCCOc1ccc(-c2ccc3c(c2)C=C(C(=O)Nc2ccc(C/C(=N\O)c4nccn4CCC)cc2)CCN3CC(C)C)cc1`, 166 to 168 °C. As to `N#Cc1ccc(C2CC(=O)N(Cc3ccccc3)Cc3cncn32)cc1` (stereo unspecified), the melting point turned out to be 65 °C. Compound `Oc1cnccc1CCCOc1cccnc1Sc1cccc(Br)c1` returned a melting point of 169 to 171 °C. As for `O=C1Cc2cc(F)ccc2N1CCCl`, the figure is 127 °C; as for `Cc1noc(-c2ccc([C@H]3CN(C(=O)OC(C)(C)C)CCO3)cc2)n1`, 116 °C.

In turn, `CC(C)OP(=O)(/C=C/CCn1cnc2c(N)ncnc21)OC(C)C` registered a melting point of 121 to 122 °C. As to `CC1CCCCN1C(=O)C=Cc1ccc(C(F)(F)F)cc1` (stereo unspecified), the melting point lay within 88 to 89 °C. Consider `CCOP(C)(=O)COS(=O)(=O)c1ccccc1C(F)(F)F` (stereo unspecified), for which the melting point lay in the range of 91 to 92.5 °C. In the case of `O=C1CCC(N2Cc3c(OCc4ccc(CN5CCc6ncccc6C5)cc4)cccc3C2=O)C(=O)N1` (stereo unspecified), the melting point was in the range of 163 to 165 °C. In the case of `Cc1cc(-c2ccc(OC(F)(F)F)cc2)cc(-c2cccc(-c3cccc(S(=O)(=O)NC(C)(C)C)c3)n2)n1` it was 148 °C. As for `O=[N+]([O-])c1ccc(-c2cccnc2)s1`, the figure is 169 to 171 °C; as for `COC(=O)C(C)(C)OCc1cc2cc(Cl)ccc2n1S(=O)(=O)c1cc(OC)ccc1OC`, 132 to 134 °C.

In turn, `CON(C)C(=O)c1cc2cccc(NS(=O)(=O)c3cccs3)c2[nH]1` registered a melting point of 180 to 181 °C. As for `COC(=O)C1CC(C#N)(c2ccc(OC)c3c2OC(C)(C)O3)CCC1=O` (stereo unspecified), the figure is 146 to 147 °C; as for `[O-][N+]1=C(c2ccccc2F)c2cc(Cl)ccc2-n2cnc(N3CCOCC3)c2C1`, 200 to 203 °C; as for `Cc1nn(CCOc2ccc(C=O)cc2)c(=O)c2ccccc12`, 90 °C. As for `CC(=O)NCC=C1CCc2c(Cl)cc3nn(C)cc3c21`, the melting point was 177 to 178 °C. Take `CCS(=O)(=O)N(C)C1CCN(c2ccccc2)c2ccccc21` (stereo unspecified): the melting point was 72 °C. As for `CCOC(=O)c1cnc(-c2ccccc2[N+](=O)[O-])[nH]c1=O`, the figure is 171 to 175 °C; as for `O=C(Nc1ccc(-n2nc(C(F)(F)F)cc2C(F)(F)F)cc1)C1CC=CCC1` (stereo unspecified), 177 to 178 °C; as for `COc1ccccc1Cn1c(=O)c2c(Cl)cc(N3CCNCC3)cc2n(Cc2ccccc2)c1=O`, 83 to 87 °C. Turning to `O=C(NCc1ccc(Cl)cc1)c1cnc2c(CNCc3ccccc3)cc(CN3CCOCC3)cc2c1O`, the melting point was in the range of 214 to 216 °C. As for `FC(F)C(Cl)=NC(c1ccccc1)(c1ccccc1)c1ccccc1`, the figure is 154 to 156 °C; as for `O=C(NCCc1ccc(O)c(O)c1)c1cccnc1`, 156 to 162 °C. As to `CC1Cc2cc3c(cc2C(c2ccc([N+](=O)[O-])cc2)=NN1C(=O)CCCN)OCO3` (stereo unspecified), the melting point was 110 to 112 °C. For the compound `CC(C#CCCCc1ccccc1)N(O)C(N)=O` (stereo unspecified), the melting point fell in the range of 78 to 81 °C. As for `CCCCCCCCCCCCCCCCSCC(O)CO` (stereo unspecified), the figure is 72 to 74 °C. Compound `C[Si](Cl)(Cl)C(c1ccccc1)(c1ccccc1)c1ccccc1` registered a melting point of 170 to 172 °C. For `COc1ccc([C@H]2SC=C(c3ccccc3)N(CCN(C)C)C(=O)[C@H]2OC(C)=O)cc1`, the melting point lay in the range of 149 to 151 °C.

For the compound `CC12CCC(O)C(O)C1=CCC1C2CCC2(C)C(O)C(O)CC12` (stereo unspecified), the melting point was 238 to 241 °C. `O=C(O)COc1ccc2cc(-c3oc4ccccc4c3C(=O)CC3CCCC3)ccc2c1`: the melting point was 177 to 178 °C. Consider `CCCN(CCC)CC1CCCN(CCNC(=O)N2c3ccccc3C(=O)Nc3cccnc32)C1` (stereo unspecified), for which the melting point fell in the range of 153 to 155 °C. As for `COc1cc(C2=NC(C)(C)CO2)cc(OC)c1SC`, the figure is 82.5 to 84.5 °C. As for `N#Cc1nn(-c2c(Cl)cc(C(F)(F)F)cc2Cl)c(N2CCCC2)c1S(=O)(=O)C(F)(F)F`, the figure is 187 to 189 °C; as for `CC(C)NCCCC[C@@H](N)C(=O)O`, 224 °C. The compound `COc1ccc(N(C(=O)C(C)c2ccccc2)c2cccc(Nc3c(N)c(=O)c3=O)c2)cc1` (stereo unspecified) registered a melting point of 168 to 170 °C. In the case of `CC(C)(C)OC(=O)Nc1ccc2ccc(S(C)(=O)=O)cc2c1` it was 179 to 180 °C; in that of `CC(C)(C)OC(=O)NC(C(=O)O)C1(O)CCSC1` (stereo unspecified), 116 to 118 °C; in that of `CCCCCCCCCCCCCCCCCCOc1ccc(O)c(C(=O)N(N)C(=O)OCCCCCCCC)c1`, 85 °C. In the case of `CCCCCCCCCCCCCCCC(=O)Nc1ccc(C(=O)O)cc1C` it was 194 to 196 °C; in that of `C=CC[C@@H]1C[C@@H](COc2ccc(-c3ccc(C#N)cc3)cc2)N(CCCC2CCCCC2)C1=O`, 157 to 159 °C. `CCCCCC/C=C/c1cccc(CCC(COC(C)=O)(COC(C)=O)NC(C)=O)c1` came in with a melting point of 84 to 86 °C.

As to `CCCN1C(=O)N2C(=NCC2c2ccccc2)c2c1ncn2C` (stereo unspecified), the melting point lay within 152 to 154 °C. As for `CCn1nc(C)c2c(NCc3ccccc3)c3ccccc3nc21`, the figure is 228 to 231 °C; as for `CS(=O)(=O)NC(=O)N[C@H]1CCN(c2ccc3c(NC(=O)CC4CCCCC4)c(Cl)ccc3n2)C1`, 303 to 307 °C; as for `CC1(CN2CCC(S(=O)c3ccc(OC(F)(F)F)cc3)CC2)Cn2cc([N+](=O)[O-])nc2O1` (stereo unspecified), 107 to 109 °C.
